Test results taken from patent US9453031B2, “Chemical entities” (Fundación Centro Nacional de Investigaciones Oncológicas …, priority 2013, dated 2016).

Each compound was assayed against PI3K (p110α/p85α) (Homo sapiens (Human), UniProt P42336) (assay: PI3K alpha activity assay (ADP Hunter Plus)). Conditions: 50 μM ATP, 30 μM PIP2; read-out: PI3Kα IC50.
Type: biochemical
Protocol: The kinase activity was measured by using the commercial ADP Hunter™ Plus assay available from DiscoveRx (#33-016), which is a homogeneous assay to measure the accumulation of ADP, a universal product of kinase activity. […] The reaction was carried out for 1 hour at 25° C. Reagent A and B were sequentially added to the wells and plates were incubated for 30 min at 37° C. Fluorescence counts were read in a Victor instrument (Perkin Elmer) with the recommended settings (544 and 580 nm as excitation and emission wavelengths, respectively).

Chain of PI3K (p110α/p85α) (P42336 whole entry): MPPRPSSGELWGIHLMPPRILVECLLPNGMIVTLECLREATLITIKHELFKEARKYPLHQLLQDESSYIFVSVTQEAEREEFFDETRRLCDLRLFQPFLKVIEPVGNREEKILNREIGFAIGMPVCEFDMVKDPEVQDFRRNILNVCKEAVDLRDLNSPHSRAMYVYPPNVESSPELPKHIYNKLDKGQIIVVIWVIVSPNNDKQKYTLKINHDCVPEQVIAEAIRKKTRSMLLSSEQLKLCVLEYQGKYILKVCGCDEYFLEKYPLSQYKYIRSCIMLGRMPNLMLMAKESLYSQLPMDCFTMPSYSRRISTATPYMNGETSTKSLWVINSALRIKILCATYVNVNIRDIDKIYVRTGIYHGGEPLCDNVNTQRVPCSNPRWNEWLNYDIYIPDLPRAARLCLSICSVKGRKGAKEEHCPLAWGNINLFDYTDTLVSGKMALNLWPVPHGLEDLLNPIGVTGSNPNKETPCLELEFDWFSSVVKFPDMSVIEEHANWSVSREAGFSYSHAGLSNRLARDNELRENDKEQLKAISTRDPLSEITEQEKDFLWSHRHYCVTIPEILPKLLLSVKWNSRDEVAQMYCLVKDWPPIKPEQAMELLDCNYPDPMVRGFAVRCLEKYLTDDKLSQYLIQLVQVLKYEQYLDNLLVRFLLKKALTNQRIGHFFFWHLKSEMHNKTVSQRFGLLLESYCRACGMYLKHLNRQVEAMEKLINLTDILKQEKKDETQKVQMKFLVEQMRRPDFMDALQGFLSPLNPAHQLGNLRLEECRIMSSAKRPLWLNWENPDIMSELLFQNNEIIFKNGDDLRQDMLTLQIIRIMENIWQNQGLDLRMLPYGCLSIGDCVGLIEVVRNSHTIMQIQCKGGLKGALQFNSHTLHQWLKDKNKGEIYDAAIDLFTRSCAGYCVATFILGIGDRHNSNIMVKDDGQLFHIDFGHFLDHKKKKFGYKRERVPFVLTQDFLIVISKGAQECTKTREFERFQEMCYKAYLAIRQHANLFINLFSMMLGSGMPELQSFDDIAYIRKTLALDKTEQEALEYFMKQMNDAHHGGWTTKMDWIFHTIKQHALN
Chain of PI3K (p110α/p85α) (P27986 whole entry partner): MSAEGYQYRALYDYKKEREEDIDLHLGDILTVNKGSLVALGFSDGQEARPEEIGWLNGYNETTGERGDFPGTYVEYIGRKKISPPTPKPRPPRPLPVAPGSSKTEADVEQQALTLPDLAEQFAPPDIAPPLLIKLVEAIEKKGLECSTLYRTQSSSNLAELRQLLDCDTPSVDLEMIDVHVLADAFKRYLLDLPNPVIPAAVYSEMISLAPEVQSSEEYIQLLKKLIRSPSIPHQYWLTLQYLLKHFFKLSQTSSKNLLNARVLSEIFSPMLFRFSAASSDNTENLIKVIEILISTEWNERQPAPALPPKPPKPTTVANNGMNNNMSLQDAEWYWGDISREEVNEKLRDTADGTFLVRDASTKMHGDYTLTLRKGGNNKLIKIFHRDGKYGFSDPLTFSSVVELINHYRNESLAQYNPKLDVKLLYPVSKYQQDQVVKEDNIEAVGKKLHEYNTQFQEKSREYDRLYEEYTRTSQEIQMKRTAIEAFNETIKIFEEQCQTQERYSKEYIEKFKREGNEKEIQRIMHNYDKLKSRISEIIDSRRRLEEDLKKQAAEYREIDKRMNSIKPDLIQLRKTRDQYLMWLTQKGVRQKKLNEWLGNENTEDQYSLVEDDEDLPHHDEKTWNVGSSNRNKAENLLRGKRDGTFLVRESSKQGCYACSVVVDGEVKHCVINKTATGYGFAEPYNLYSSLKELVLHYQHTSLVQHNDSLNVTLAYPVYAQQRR

SMILES | IC50 [nM]
CS(=O)(=O)C1(c2nc(-c3cc(F)cc4[nH]ccc34)nc3c2OC[C@@H]2COCCN32)CC1 [Example 74] | 2240
COc1cc(-c2nc3c(c(C(C)(C)S(C)(=O)=O)n2)OC[C@@H]2COCCN32)c2cc[nH]c2c1 [Example 72] | 820
COc1cc(-c2nc3c(c(C(C)(C)O)n2)OC[C@@H]2COCCN32)c2cc[nH]c2c1 [Example 46] | 480
CS(=O)(=O)C1(c2nc(-c3cc(C(F)(F)F)cc4[nH]ccc34)nc3c2OC[C@@H]2COCCN32)CCC1 [Example 112] | 19500
CC(C)(c1nc(-c2cc(C(F)(F)F)cc3[nH]ccc23)nc2c1OC[C@@H]1COCCN21)S(C)(=O)=O [Example 101] | 12600
CC(C)(c1nc(-c2cccc3[nH]ccc23)nc2c1OC[C@H]1COCCN21)S(C)(=O)=O [Example 15] | 1100
CNc1nc2ccccc2n1-c1nc2c(c(C(C)(C)S(C)(=O)=O)n1)OCC[C@@H]1COCCN21 [Example 62] | 16200

Each compound was assayed against CYP 2D6 (Homo sapiens (Human), UniProt P10635) (assay: CYP inhibition assay (P450-Glo)). Conditions: recombinant CYP.
Type: in vitro ADME
Description: (§1) The Luciferase-based P450-Glo assay (Promega, V9770, V9790, V9880, V9890, V9770) employ luminogenic CYP450 probe substrates (Luciferin-IPA, Luciferin-ME, Luciferin-H, Luciferin-BE, Luciferin-ME EGE, Luciferin-H EGE and Luciferin-PPXE) that are derivatives of beetle luciferin, a substrate for luciferase enzymes. The derivatives are not substrates for luciferase but are converted by P450s to luciferin, which in turn reacts with luciferase to produce an amount of light that is directly proportional to the activity of the P450. The assay measures the dose-dependent CYP inhibition by test compounds against recombinant CYP enzymes expressed in insect cells. The CYP reaction is performed by incubating a luminogenic CYP substrate with a CYP enzyme and NADPH regeneration system, then the reconstituted Luciferin Detection Reagent is added. […] The glow-type luciferase reaction produces a stable signal that eliminates the need for strictly timed luminescence detection.
(§2) Five CYP isoforms (0.5 pmol) were tested, namely 1A2, 2C9, 2C19, 2D6 and 3A4 (each isoform was assayed in a separate assay plate). […] After 20 min incubation at 37° C., the assay plate was read in the Envision 2104 Multilable reader. […]

SMILES | IC50 [µM]
CNc1nc2ccccc2n1-c1nc2c(c(C(C)(C)S(C)(=O)=O)n1)OC[C@@H]1COCCN21 [Example 11] | > 50

What follows are compounds tested on Eμmyc lymphoma cells (assay: In vivo efficacy, mice injected intravenously with Eμmyc lymphoma cells). Conditions: 25 mg/kg oral once daily, day 33, compared to vehicle, C57BL/6 mice.
Protocol: The efficacy of compounds of the invention alone or in combination with chemotherapeutics agents were measured in vivo by implanting allografts or xenografts of cancer cells in rodents and treating the tumour-bearing animals with the compounds alone or in combination with chemotherapeutics agents.
Recipient mice were monitored for tumor formation by the presence of tumoral cells in the blood (LDH measurement), and twice a week by palpation of the pre-scapular and cervical lymph-nodes, once a week by sonography measurement of thoracic lymph-nodes size. […] Efficacy of the treatment was done evaluating the relative weight of all tumoral tissues (spleen, salivary lymph-nodes, mammary lymph-nodes, thymus and mesenteric lymph-nodes) versus body weight substrating the relative weight of same normal tissues. Bars represent standard error of the mean (n=8).

SMILES | tumor growth inhibition (TGI) [%]
CNc1nc2ccccc2n1-c1nc2c(c(C(C)(C)S(C)(=O)=O)n1)OC[C@@H]1COCCN21 [Example 11] | 53

Same assay, conditions: 50 mg/kg oral once daily, day 33, compared to vehicle, C57BL/6 mice

SMILES | tumor growth inhibition (TGI) [%]
CNc1nc2ccccc2n1-c1nc2c(c(C(C)(C)S(C)(=O)=O)n1)OC[C@@H]1COCCN21 [Example 11] | 74

Each compound was assayed against CYP 2C19 (Homo sapiens (Human), UniProt P33261) (assay: CYP inhibition assay (P450-Glo)). Conditions: recombinant CYP.
Type: in vitro ADME
Description: as §1, §2

SMILES | IC50 [µM]
CNc1nc2ccccc2n1-c1nc2c(c(C(C)(C)S(C)(=O)=O)n1)OC[C@@H]1COCCN21 [Example 11] | > 50

Each compound was assayed against CYP 2C9 (Homo sapiens (Human), UniProt P11712) (assay: CYP inhibition assay (P450-Glo)). Conditions: read-out: P450-2C9 IC50; recombinant CYP.
Description: as §1, §2

SMILES | IC50 [µM]
CNc1nc2ccccc2n1-c1nc2c(c(C(C)(C)S(C)(=O)=O)n1)OC[C@@H]1COCCN21 [Example 11] | 34

Each compound was assayed against CYP 3A4 (Homo sapiens (Human), UniProt P08684) (assay: CYP inhibition assay (P450-Glo)). Conditions: read-out: P450-3A4 IC50; recombinant CYP.
Description: as §1, §2

SMILES | IC50 [µM]
CNc1nc2ccccc2n1-c1nc2c(c(C(C)(C)S(C)(=O)=O)n1)OC[C@@H]1COCCN21 [Example 11] | 39

These compounds were tested against DNA-PK (Homo sapiens (Human), UniProt P78527) (assay: DNAPK activity assay (ADP Hunter Plus)). Conditions: 75 μM ATP.
Type: biochemical
Protocol: The kinase activity was measured by using the commercial ADP Hunter™ Plus assay available from DiscoveRx (#90-0083), which is a homogeneous assay to measure the accumulation of ADP, a universal product of kinase activity. The enzyme, DNA-PK was purchased from Promega (#V5811). The assay was done following the manufacturer recommendations with slight modifications: Mainly the kinase buffer was replace by 15 mM HEPES, pH 7.5, 10 mM MgCl2, 20 mM NaCl, 1 mM EGTA, 0.1 mg/mL BGG, 0.02% Tween 20. The DNA-PK was assayed in a titration experiment to determine the optimal protein concentration for the inhibition assay. To calculate the […] of the Compounds, serial 1:3 dilutions of the compounds were added to the enzyme at a fixed concentration (2 U/μL). The enzyme was preincubated with the inhibitor and 200 μM DNA substrate and then ATP was added to a final 75 μM concentration. Reaction was carried out for 1 hour at 37° C. Reagent A and B were sequentially added to the wells and plates were incubated for 30 min at RT. Fluorescence counts were read in a EnVision instrument (Perkin Elmer) with the recommended settings (550 and 590 nm as excitation and emission wavelengths, respectively).

SMILES | IC50 [nM]
CS(=O)(=O)C1(c2nc(-c3cc(F)cc4[nH]ccc34)nc3c2OC[C@@H]2COCCN32)CC1 [Example 74] | 989
COc1cc(-c2nc3c(c(C(C)(C)S(C)(=O)=O)n2)OC[C@@H]2COCCN32)c2cc[nH]c2c1 [Example 72] | 1600
COc1cc(-c2nc3c(c(C(C)(C)O)n2)OC[C@@H]2COCCN32)c2cc[nH]c2c1 [Example 46] | 2820
CS(=O)(=O)C1(c2nc(-c3cc(C(F)(F)F)cc4[nH]ccc34)nc3c2OC[C@@H]2COCCN32)CCC1 [Example 112] | 10000
CC(C)(c1nc(-c2cc(C(F)(F)F)cc3[nH]ccc23)nc2c1OC[C@@H]1COCCN21)S(C)(=O)=O [Example 101] | 10000
CC(C)(c1nc(-c2cccc3[nH]ccc23)nc2c1OC[C@H]1COCCN21)S(C)(=O)=O [Example 15] | 2860
CNc1nc2ccccc2n1-c1nc2c(c(C(C)(C)S(C)(=O)=O)n1)OCC[C@@H]1COCCN21 [Example 62] | 10000

Each compound was assayed against ATR (Homo sapiens (Human), UniProt Q13535) (assay: Cellular ATR inhibition, western blot of CHK1(S345) phosphorylation in hydroxyurea treated cells). Conditions: HT29 cells, hydroxyurea 2.5 mM.
Chain of ATR (Q13535 whole entry): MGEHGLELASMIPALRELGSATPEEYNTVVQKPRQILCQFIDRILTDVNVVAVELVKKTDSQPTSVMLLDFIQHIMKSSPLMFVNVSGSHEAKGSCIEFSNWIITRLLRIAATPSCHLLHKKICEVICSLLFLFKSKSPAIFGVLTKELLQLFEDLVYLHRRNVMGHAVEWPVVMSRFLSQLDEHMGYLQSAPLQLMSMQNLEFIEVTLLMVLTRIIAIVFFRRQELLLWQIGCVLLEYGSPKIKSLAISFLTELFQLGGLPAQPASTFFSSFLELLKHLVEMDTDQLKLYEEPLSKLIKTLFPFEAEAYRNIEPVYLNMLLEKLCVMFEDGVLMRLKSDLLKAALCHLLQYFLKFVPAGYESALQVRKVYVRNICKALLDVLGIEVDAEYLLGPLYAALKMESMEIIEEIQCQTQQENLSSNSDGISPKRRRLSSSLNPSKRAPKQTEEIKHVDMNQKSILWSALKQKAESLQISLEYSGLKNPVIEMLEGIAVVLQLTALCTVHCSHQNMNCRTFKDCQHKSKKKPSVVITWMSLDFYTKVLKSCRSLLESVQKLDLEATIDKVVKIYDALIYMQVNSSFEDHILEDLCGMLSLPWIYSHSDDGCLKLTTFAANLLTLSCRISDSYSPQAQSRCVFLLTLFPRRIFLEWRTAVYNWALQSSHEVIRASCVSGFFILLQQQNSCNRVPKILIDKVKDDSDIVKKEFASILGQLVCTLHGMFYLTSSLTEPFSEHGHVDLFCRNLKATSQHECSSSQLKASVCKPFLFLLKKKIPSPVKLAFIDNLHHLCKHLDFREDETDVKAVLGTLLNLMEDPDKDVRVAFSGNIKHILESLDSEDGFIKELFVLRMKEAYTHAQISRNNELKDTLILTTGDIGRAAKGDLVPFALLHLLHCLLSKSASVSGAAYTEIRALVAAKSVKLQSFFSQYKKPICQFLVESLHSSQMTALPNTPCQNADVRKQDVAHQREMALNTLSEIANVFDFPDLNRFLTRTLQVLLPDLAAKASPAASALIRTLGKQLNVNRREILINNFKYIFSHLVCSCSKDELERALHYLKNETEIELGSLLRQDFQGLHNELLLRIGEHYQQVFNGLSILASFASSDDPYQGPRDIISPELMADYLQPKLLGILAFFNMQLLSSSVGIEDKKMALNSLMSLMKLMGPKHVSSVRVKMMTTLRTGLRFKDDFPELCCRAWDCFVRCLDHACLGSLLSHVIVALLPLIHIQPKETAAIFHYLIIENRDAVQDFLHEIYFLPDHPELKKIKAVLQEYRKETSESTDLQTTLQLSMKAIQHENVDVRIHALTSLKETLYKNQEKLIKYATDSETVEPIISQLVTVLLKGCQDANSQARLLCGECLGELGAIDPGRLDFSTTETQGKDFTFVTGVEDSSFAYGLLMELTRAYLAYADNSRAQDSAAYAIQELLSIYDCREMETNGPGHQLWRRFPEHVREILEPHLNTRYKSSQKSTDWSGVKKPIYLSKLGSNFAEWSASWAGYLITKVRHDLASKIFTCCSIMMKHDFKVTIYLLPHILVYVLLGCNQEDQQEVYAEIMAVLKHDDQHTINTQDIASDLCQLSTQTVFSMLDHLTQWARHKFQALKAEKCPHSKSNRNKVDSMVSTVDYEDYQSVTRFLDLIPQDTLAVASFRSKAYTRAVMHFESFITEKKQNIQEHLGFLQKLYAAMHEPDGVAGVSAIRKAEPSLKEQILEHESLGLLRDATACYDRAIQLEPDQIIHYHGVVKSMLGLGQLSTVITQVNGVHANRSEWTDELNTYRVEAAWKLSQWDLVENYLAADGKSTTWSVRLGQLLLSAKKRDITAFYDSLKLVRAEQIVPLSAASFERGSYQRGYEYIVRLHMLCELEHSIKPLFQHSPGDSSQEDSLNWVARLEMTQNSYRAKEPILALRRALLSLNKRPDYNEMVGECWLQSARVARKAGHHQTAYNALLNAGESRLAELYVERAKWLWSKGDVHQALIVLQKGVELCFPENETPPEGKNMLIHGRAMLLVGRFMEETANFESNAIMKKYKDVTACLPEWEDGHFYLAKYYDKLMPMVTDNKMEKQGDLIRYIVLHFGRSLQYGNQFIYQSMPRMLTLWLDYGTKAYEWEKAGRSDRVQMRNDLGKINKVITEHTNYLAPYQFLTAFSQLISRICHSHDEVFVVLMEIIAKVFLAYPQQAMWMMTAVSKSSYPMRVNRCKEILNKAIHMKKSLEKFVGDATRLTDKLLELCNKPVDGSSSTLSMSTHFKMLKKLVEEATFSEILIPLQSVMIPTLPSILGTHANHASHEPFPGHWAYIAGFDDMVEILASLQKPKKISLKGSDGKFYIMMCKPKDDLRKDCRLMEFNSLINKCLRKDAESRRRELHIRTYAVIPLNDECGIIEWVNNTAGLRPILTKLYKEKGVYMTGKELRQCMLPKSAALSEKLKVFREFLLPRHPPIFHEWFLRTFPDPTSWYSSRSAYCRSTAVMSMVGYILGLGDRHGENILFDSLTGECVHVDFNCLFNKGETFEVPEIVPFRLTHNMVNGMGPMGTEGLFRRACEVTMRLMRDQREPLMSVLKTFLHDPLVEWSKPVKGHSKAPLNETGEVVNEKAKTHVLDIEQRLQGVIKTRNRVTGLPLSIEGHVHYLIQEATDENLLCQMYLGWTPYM
Type: cell-based
Protocol: In addition to the selective system described above, Example compounds presented here were screened for their ability to inhibit intracellular ATR using a western blot assay to detect phosphorylation of the ATR substrate CHK1(S345) in hydroxyurea treated cells. HT29 cells are plated at 500,000 cells per well in 6-well plates in RPMI media (Sigma R6504) supplemented with 10% foetal bovine serum (Sigma F7524), Penicillin/Streptomycin solution diluted 1:100 (Gibco 15070-063), and fungizone (Gibco, 15290-018), and allowed to adhere overnight at 37° C. in 5% CO2. Compounds are then added to the cell media from a final concentration of 10 μM in 3-fold serial dilutions and the cells are incubated at 37° C. in 5% CO2. After 15 min, hydroxyurea (Sigma H8627) is added to a final concentration of 2.5 mM. After 30 min of treatment with hydroxyurea, the cells are washed in PBS, lysed adding 50 μl of in protein lysis buffer (50 mM Tris pH 7.5, 150 mM NaCl, 1% IGEPAL CO-630 (Sigma, Ref. 542334-100G-A), Phospho Stop (Roche, Ref. 04906837001) and Complete Mini EDTA free (Roche, Ref. 11836170001)). The protein content of the lysates was determined by the modified method of Bradford (Sigma, Ref. B6916). The proteins were resolved by SDS-PAGE and transferred to nitrocellulose membrane (VWR International Eurolab, Ref. 732-4007). The membranes were incubated overnight at 4° C. with antibodies specific for total CHK1 (Santa Cruz Biotechnology, sc-8404), phosphoserine-345 CHK1 (Cell Signaling Technology #2348) they were washed and then incubated with IRDye800 conjugated anti-mouse (Pierce/Cultek, 35521) and Alexa Fluor 680 goat anti-rabbit IgG secondary antibodies (Invitrogen, A21076). The bands were visualized and quantified using an Odyssey infrared imaging system (Li-Cor Biosciences). The percentage of phosphorylated CHK1 vs total CHK1 in cells treated with hydroxyurea was taken as hundred percent of phosphorylation. The percentage of CHK1 phosphorylation is finally plotted against concentration for each compound and EC50s for intracellular ATR inhibition are calculated using ActivityBase from IDBS.

SMILES | EC50 [nM]
CNc1nc2ccccc2n1-c1nc2c(c(C(C)(C)S(C)(=O)=O)n1)OC[C@@H]1COCCN21 [Example 11] | < 100
CS(=O)(=O)C1(c2nc(-c3cc(F)cc4[nH]ccc34)nc3c2OC[C@@H]2COCCN32)CC1 [Example 74] | 100 to 1000
COc1cc(-c2nc3c(c(C(C)(C)S(C)(=O)=O)n2)OC[C@@H]2COCCN32)c2cc[nH]c2c1 [Example 72] | 100 to 1000
COc1cc(-c2nc3c(c(C(C)(C)O)n2)OC[C@@H]2COCCN32)c2cc[nH]c2c1 [Example 46] | 100 to 1000
CS(=O)(=O)C1(c2nc(-c3cc(C(F)(F)F)cc4[nH]ccc34)nc3c2OC[C@@H]2COCCN32)CCC1 [Example 112] | 100 to 1000
CC(C)(c1nc(-c2cc(C(F)(F)F)cc3[nH]ccc23)nc2c1OC[C@@H]1COCCN21)S(C)(=O)=O [Example 101] | 100 to 1000
CC(C)(c1nc(-c2cccc3[nH]ccc23)nc2c1OC[C@H]1COCCN21)S(C)(=O)=O [Example 15] | 100 to 1000
CNc1nc2ccccc2n1-c1nc2c(c(C(C)(C)S(C)(=O)=O)n1)OCC[C@@H]1COCCN21 [Example 62] | 100 to 1000

Each compound was assayed against CYP 1A2 (Homo sapiens (Human), UniProt P05177) (assay: CYP inhibition assay (P450-Glo)). Conditions: recombinant CYP.
Chain of CYP 1A2 (P05177 whole entry): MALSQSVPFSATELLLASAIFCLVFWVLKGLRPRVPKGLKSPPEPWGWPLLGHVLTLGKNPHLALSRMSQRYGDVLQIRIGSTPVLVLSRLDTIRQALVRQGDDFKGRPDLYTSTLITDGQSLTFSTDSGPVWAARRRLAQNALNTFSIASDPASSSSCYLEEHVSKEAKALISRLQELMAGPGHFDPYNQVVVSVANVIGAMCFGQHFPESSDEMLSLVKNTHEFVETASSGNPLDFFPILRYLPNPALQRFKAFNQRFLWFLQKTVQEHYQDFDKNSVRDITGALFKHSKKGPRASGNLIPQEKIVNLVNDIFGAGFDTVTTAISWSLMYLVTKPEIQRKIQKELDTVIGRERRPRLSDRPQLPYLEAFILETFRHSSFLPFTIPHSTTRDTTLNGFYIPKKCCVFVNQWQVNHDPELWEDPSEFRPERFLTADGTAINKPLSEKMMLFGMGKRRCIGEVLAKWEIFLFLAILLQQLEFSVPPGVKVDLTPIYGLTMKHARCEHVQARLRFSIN
Type: in vitro ADME
Description: as §1, §2

SMILES | IC50 [µM]
CNc1nc2ccccc2n1-c1nc2c(c(C(C)(C)S(C)(=O)=O)n1)OC[C@@H]1COCCN21 [Example 11] | > 50

These compounds were tested against mTOR (Homo sapiens (Human), UniProt P42345) (assay: mTOR activity assay (LanthaScreen)). Conditions: not given.
Type: biochemical
Protocol: The enzymatic mTOR activity was measured using a LanthaScreen™ kinase activity assay (Invitrogen). The enzyme was purchased from Invitrogen (PV4754), as well as the GFP-labelled substrate (4EBP1-GFP; PV4759) and the Tb-antip4EBP1(pThr46) antibody (PV4757). The assay was performed in 50 Mm HEPES buffer, pH 7.5, containing 1.5 mM MnCl2, 10 mM MgCl2, 1 mM EGTA, 2.5 mM DTT and 0.01% Tween-20. The concentration of the assay components were the following: 0.24 nM mTOR kinase, 400 nM 4EBP1-GFP, […] and serial dilutions of the compound (inhibitor) to be evaluated. After 1 h incubation at room temperature, 20 mM EDTA was used to stop the reaction and terbium-labelled antibody (4 nM) added to detect phosphorylated product. The antibody associates with the phosphorylated product resulting in an increased TR-FRET value. The TR-FRET value (a dimensionless number) was calculated as the ratio of the acceptor signal (GFP, emission at 520 nm) to the donor signal (terbium, emission at 495 nm).

SMILES | IC50 [nM]
CS(=O)(=O)C1(c2nc(-c3cc(F)cc4[nH]ccc34)nc3c2OC[C@@H]2COCCN32)CC1 [Example 74] | 152
COc1cc(-c2nc3c(c(C(C)(C)S(C)(=O)=O)n2)OC[C@@H]2COCCN32)c2cc[nH]c2c1 [Example 72] | 45.3
COc1cc(-c2nc3c(c(C(C)(C)O)n2)OC[C@@H]2COCCN32)c2cc[nH]c2c1 [Example 46] | 38
CS(=O)(=O)C1(c2nc(-c3cc(C(F)(F)F)cc4[nH]ccc34)nc3c2OC[C@@H]2COCCN32)CCC1 [Example 112] | 235
CC(C)(c1nc(-c2cc(C(F)(F)F)cc3[nH]ccc23)nc2c1OC[C@@H]1COCCN21)S(C)(=O)=O [Example 101] | 227
CC(C)(c1nc(-c2cccc3[nH]ccc23)nc2c1OC[C@H]1COCCN21)S(C)(=O)=O [Example 15] | 851
CNc1nc2ccccc2n1-c1nc2c(c(C(C)(C)S(C)(=O)=O)n1)OCC[C@@H]1COCCN21 [Example 62] | 6600
